Converted amounts (≈) assume the structure as drawn.
Key:
[1] = test system: Pseudomonas aeruginosa (ATCC 27853); format: cell-based; settings: 35° C., 12-18 hrs
[2] = test system: F. graminearum isolate B-4-5A; format: in vivo, Fusarium graminearum on wheat (Alsen and Frontana cultivars); settings: 30 μg/mL aminoglycoside mixed in inoculum, wheat leaves
[3] = test system: Escherichia coli TG1 (pET28a); format: cell-based; settings: 35° C., 12-18 hrs
wheat seedlings = settings: in vivo
screened fungi = experiment: MIC against screened fungi (all species); format: cell-based
F. graminearum [4] = format: cell-based, Fusarium graminearum; settings: PDB+casamino acids containing 0.02, 0.08 or 0.2% (v/v) surfactant
F. graminearum [5] = format: cell-based, Fusarium graminearum; settings: for lethality to F. graminearum: in the range of 500 to 1 μg/mL
Fusarium oxysporium = experiment: MIC against screened fungi
Ulocladium sp. = experiment: MIC against screened fungi
[6] = test system: Enterococcus faecalis (ATCC29212); format: cell-based; settings: 35° C., 12-18 hrs
[7] = test system: Staphylococcus aureus ATCC 25923; format: cell-based; settings: 35° C., 12-18 hrs
[8] = test system: Klebsiella pneumoniae (ATCC 138883); format: cell-based; settings: 35° C., 12-18 hrs
[9] = test system: selected bacterial pathogens; experiment: Antibacterial MIC over the selected bacterial pathogens; format: cell-based; settings: read-out: Corresponding MIC values (span over the tested bacteria)
Method: The minimum inhibitory concentration of M038 was determined for selected bacterial pathogens. For purposes of the experiments discussed in this paragraph, the minimum inhibitory concentration (MIC) is defined as the minimum concentration of compound needed to inhibit the growth of bacteria. A solution of selected bacteria was inoculated Trypticase Soy broth at 35° C. and incubated for 1-2 hours. Following incubation, the bacterial concentrations were determined, and diluted with broth, if necessary, to an absorption value of 0.08 to 0.1 at 625 nm. The adjusted inoculated medium (100 μL) was diluted with 10 ml broth, and then applied to a 96-well microtiter plate (50 μL). A series of solutions (50 μL each in 2-fold dilution) of M038 was added to the testing wells. The 96-well plate was incubated at 35° C. for 12-18 hrs. The MIC results were repeated at least three times.

SMILES	lesion development / leaf infection by F. graminearum [2]	phytotoxicity (wheat seedlings)	phytotoxicity (relative chlorophyll content) (wheat seedlings)	effect of surfactant on in vitro activity (MIC) (F. graminearum [4])	lethality to F. graminearum (F. graminearum [5])	further results
CCCCCCCCO[C@H]1[C@H](O)[C@@H](O)[C@@H](O[C@@H]2[C@@H](O)[C@H](O[C@H]3O[C@H](CN)[C@@H](O)[C@H](O)[C@H]3N)[C@@H](N)C[C@H]2N)O[C@@H]1C [JL038, 6-O-(6-Deoxy-4-O-n-octyl-α-D-glucopyranosyl)neamine]	prevents lesion development	no phytotoxicity	phytotoxic	did not affect	–	Minimal inhibitory concentration (MIC) [1]: 250 µg/mL (≈ 431 µM); Minimal inhibitory concentration (MIC) [3]: 125-250 μ/mL; chlorophyll damage (relative chlorophyll content) (wheat seedlings): no chlorophyll damages; phytotoxicity (chlorosis in the absence of fungal growth) (wheat seedlings): showed phytotoxicity; MICs for all species of screened fungi (screened fungi; all screened fungi): ≤ 31.3 µg/mL; MIC (MIC90, concentration required to inhibit 90% of the growth or more) (F. graminearum [5]; PDB+casamino acids, 24° C., 72 h, tested range 500 to 1 μg/mL): 31.3 µg/mL; MIC (Fusarium oxysporium): 7.8 µg/mL (≈ 13.4 µM); MIC (Ulocladium sp.): 7.8 µg/mL (≈ 13.4 µM); Minimal inhibitory concentration (MIC) [6]: 125-250 μ/mL; Minimal inhibitory concentration (MIC) [7]: 250 μ/mL; Minimal inhibitory concentration (MIC) [8]: 250 μ/mL
NCC1O[C@H](OC2C(N)CC(N)[C@@H](OC3OCC(O)[C@@H](O)[C@H]3O)[C@H]2O)C(N)[C@@H](O)[C@@H]1O (stereo partly drawn) [JL39]	–	–	–	–	not lethal	–
NCC1O[C@H](OC2C(N)CC(N)[C@@H](OC3OCC(O)[C@@H](N)[C@H]3O)[C@H]2O)C(N)[C@@H](O)[C@@H]1O (stereo partly drawn) [JL40, reference compound]	did not prevent leaf infection	phytotoxic	phytotoxic	did not affect	–	–
NCC1O[C@H](OC2C(N)CC(N)[C@@H](OC3O[C@H](CO)C(O)[C@@H](N)[C@H]3O)[C@H]2O)C(O)[C@@H](O)[C@@H]1O (stereo partly drawn) [kanamycin A, Kanamycin A]	–	–	–	–	not lethal	–
NC[C@H]1O[C@H](O[C@H]2[C@H](O)[C@@H](O[C@H]3O[C@H](CO)[C@@H](O)[C@H](N)[C@H]3O)[C@H](N)C[C@@H]2N)[C@H](N)[C@@H](O)[C@@H]1O [kanamycin B, Kanamycin B, reference compound]	did not prevent leaf infection	phytotoxic	phytotoxic	did not affect	–	antifungal effectiveness against screened fungi (screened fungi; screened fungi of Table 2): substantially ineffective; MIC [9]: 980 to 1950 µg/mL (≈ 2030 to 4030 µM)
